This series can be described thus: solvent given as SMILES.

The structures appear in SMILES notation. Where “and” joins values, the source holds several entries; their conditions need not be identical. Identical values can stand only once.

The values that follow come from the Deep4Chem optical property database.

Regarding `COc1ccc(-c2c3nc(cc4ccc([nH]4)c(-c4ccc(OC)c(OCC(=O)O)c4)c4nc(cc5ccc2[nH]5)CC4)CC3)cc1OCC(=O)O`, the emission maximum (in CS(C)=O) is 738 nm.

For `COc1ccc2c3c(c4ccc(OC)cc4c2c1)C1(c2ccccc2-c2ccccc21)c1ccccc1-3`, the emission maximum (in C1CCCCC1) came to 389 nm.

For the setting “in C1CCOC1”, `Cc1sc(-c2ccc(-c3nc(-c4ccccc4)c(-c4ccccc4)[nH]3)cc2)c(C)c1C1=C(c2c(C)n(C)c3ccccc23)C(F)(F)C(F)(F)C1(F)F` came in with an emission maximum of 392 nm.

`c1ccc([Si]2(c3ccccc3)c3ccccc3-c3cc4c(cc32)-c2ccccc2[Si]4(c2ccccc2)c2ccccc2)cc1`: the emission maximum (in ClCCl) was determined as 395 nm.

As for `c1ccc(-c2nc(-c3ccc(N4c5ccccc5C(c5ccccc5)(c5ccccc5)c5ccccc54)cc3)cc(-c3ccccn3)n2)cc1`, the emission maximum stood at 460 nm (in Cc1ccccc1) and 468 nm (in O=P(c1ccccc1)(c1ccccc1)c1ccccc1Oc1ccccc1P(=O)(c1ccccc1)c1ccccc1).

`CCCCc1ccc2ccc3c(CCCC)cc(CCCC)c4ccc1c2c34`: the emission maximum by setting is: (in CCCCCC) 384 nm; (in CO) 384 nm; (in ClCCl) 385 nm.

In the case of `Nc1ccc2cc(-c3ccc(C(F)(F)F)cc3)oc(=O)c2c1`, the emission maximum turned out to be 439 nm (in CC(C)=O); 418 nm (in CCCCCC); 460 nm (in CCCCO); 459 nm (in CCCO); 460 nm (in CCO); 436 nm (in CCOC(C)=O). Moreover, the emission maximum runs as follows: (in CN(C)C=O) 448 nm; (in CO) 461 nm; (in ClC(Cl)Cl) 438 nm.

Regarding `CC(=O)c1c(N[C@@H](CS)C(=O)O)c2ccc(N(C)C)cc2oc1=O`, for the setting “in ClCCl”, the emission maximum was found to be 424 nm.

Regarding `COC(=O)C(NC(=O)OC(C)(C)C)c1ccc2oc(-c3cc(OC)ccc3OC)nc2c1` (configuration not stated), the emission maximum is, setting by setting: (in CC1CCCCC1) 364 nm; (in CC#N) 390 nm; (in CO) 405 nm.

As to `c1cc2c3c(cccc3c1)C(N1CCOCCOCCOCCOCC1)=N2`, the emission maximum (in CC#N) is given as 590 nm.

Consider `c1ccc(-c2nc(-c3ccc(-c4nc(-c5ccccc5)c(-c5ccccc5)[nH]4)s3)[nH]c2-c2ccccc2)cc1`, for which the emission maximum (in C1CCOC1) was 457 nm; the emission maximum (in CC#N) came out at 458 nm; the emission maximum (in CC(=O)O) is 503 nm and 502.99 nm; the emission maximum (in CC(C)=O) is 460 nm and 458 nm; the emission maximum (in CCOC(C)=O) is recorded as 457 nm; the emission maximum (in CCOCC) was 454 nm and 454.01 nm. Further, the emission maximum by setting is: (in CO) 457 nm; (in ClC(Cl)Cl) 485 nm and 484.99 nm.

For the setting “in CC#N”, `COc1ccc(C#Cc2ccc3ccc(=O)oc3c2)cc1` had an emission maximum of 465 nm.

As for `CCN(CC)c1ccc2cc(-c3nc4ccccc4n3C)c(=O)oc2c1`, the emission maximum (in CC#N) is 480 nm.

For `Cc1ccc(C#Cc2ccc3ccc4cccc5ccc2c3c45)cc1`, the emission maximum reads like this: (in CCCCCC) 387 nm; (in CCO) 391 nm; (in CCOC(C)=O) 391 nm; (in ClCCl) 395 nm.

With `COc1cc(C(=O)c2c(C)c3ccc4cccc5c6cccc7ccc2c(c76)c3c45)cc(OC)c1OC`, the emission maximum (in ClCCl) stood at 456 nm.

On to `CCN(CC)c1ccc2cc(-c3ccc(-c4ccc5c6ccccc6c6c7cc(-c8ccc(-c9cc%10ccc(N(CC)CC)cc%10oc9=O)cc8)ccc7c7ccccc7c6c5c4)cc3)c(=O)oc2c1`, for which, under “in ClC(Cl)Cl”, the emission maximum was determined as 482 nm.

Turning to `CCCCN1C(=O)c2ccc3c4ccc5c6c(cc(Br)c(c7ccc(c2c37)C1=O)c64)C(=O)N(CCCC)C5=O`, under “in ClCCl”, the emission maximum was determined as 540 nm.

On to `CCCCN1C(=O)C2=C(c3ccc(-c4ccc5c(c4)C(C)(C)c4ccccc4-5)cc3)[N-]C(=O)C2=C1c1ccc(-c2ccc3c(c2)C(C)(C)c2ccccc2-3)cc1`, for which, for the setting “in ClCCl”, the emission maximum was determined as 635 nm.

Take `CC(C)(C)c1cc(-n2c(-c3ccc(C(=C(c4ccccc4)c4ccccc4)c4ccccc4)cc3)cc3c2cc(-c2ccc(C(=C(c4ccccc4)c4ccccc4)c4ccccc4)cc2)n3-c2cc(C(C)(C)C)cc(C(C)(C)C)c2)cc(C(C)(C)C)c1`: under “in ClCCl”, the emission maximum came out at 586 nm.
